Experimental data reported in patent US11414379B2, “SPAK kinase inhibitors as neuroprotective agents” (United States Government as represented by the Department …, priority 2018, dated 2022).

Assays:
Test in all cases: Kinase panel (Dundee profiling)
Assay type in all cases: biochemical
Conditions in all cases: read-out: % residual kinase activity
[1] = target: MARK1 (Homo sapiens, UniProt Q9P0L2)
Method: (§1) The kinase selectivity of ZT-1a was further assessed using standard radioisotopic enzymatic assays against a panel of 140 recombinant kinases (Dundee profiling, Table 2) (Bain et al. (2007) The Biochemical journal 408, 297-315). ZT-1a at a concentration of 10 μM inhibited only MAPKAP-K2 activity 85±7% compared to DMSO control, representing high kinase selectivity.
(§2) Referring to Table 2, ZT-1a was tested at 10 and 1 μM against a panel of 140 recombinant kinases in an enzymatic activity-based assay performed by the International Centre for Kinase Profiling in the MRC Protein Phosphorylation and Ubiquitylation Unit. Values represent % residual kinase activity (mean+/−SEM, n=3). Kinases labelled with an asterick* are inhibited ≥50% by ZT-1a.

[2] = target: TESK1 (Homo sapiens, UniProt Q15569)
Method: as §1, §2

[3] = target: EPH-B2 (Homo sapiens, UniProt P29323)
Method: as §1, §2

[4] = target: SYK (Homo sapiens, UniProt P43405)
Method: as §1, §2

[5] = target: NEK2a (Homo sapiens, UniProt P51955)
Method: as §1, §2

[6] = target: GCK (Homo sapiens, UniProt Q12851)
Method: as §1, §2

[7] = target: ERK5 (Homo sapiens, UniProt Q13164)
Method: as §1, §2

[8] = target: MST4 (Homo sapiens, UniProt Q9P289)
Method: as §1, §2

[9] = target: ASK1 (Homo sapiens, UniProt Q99683)
Method: as §1, §2

[10] = target: IKKe (Homo sapiens, UniProt Q14164)
Method: as §1, §2

[11] = target: IRAK1 (Homo sapiens, UniProt P51617)
Method: as §1, §2

[12] = target: MLK1 (Homo sapiens, UniProt P80192)
Method: as §1, §2

[13] = target: SIK2 (Homo sapiens, UniProt Q9H0K1)
Method: as §1, §2

[14] = target: TGFBR1 (Homo sapiens, UniProt P36897)
Method: as §1, §2

[15] = target: EPH-B3 (Homo sapiens, UniProt P54753)
Method: as §1, §2

[16] = target: PKBa (Homo sapiens, UniProt P31749, S473D)
Method: as §1, §2

[17] = target: IRR (Homo sapiens, UniProt P14616)
Method: as §1, §2

[18] = target: MARK4 (Homo sapiens, UniProt Q96L34)
Method: as §1, §2

[19] = target: ULK1 (Homo sapiens, UniProt O75385)
Method: as §1, §2

[20] = target: SIK3 (Homo sapiens, UniProt Q9Y2K2)
Method: as §1, §2

[21] = target: BRSK1 (Homo sapiens, UniProt Q8TDC3)
Method: as §1, §2

[22] = target: IR (Homo sapiens, UniProt P06213)
Method: as §1, §2

[23] = target: PHK (Homo sapiens, UniProt Q16816)
Method: as §1, §2

[24] = target: RIPK2 (Homo sapiens, UniProt O43353)
Method: as §1, §2

[25] = target: TrkA (Homo sapiens, UniProt P04629)
Method: as §1, §2

[26] = target: ERK8 (Homo sapiens, UniProt Q8TD08)
Method: as §1, §2

[27] = target: GSK3b (Homo sapiens, UniProt P49841)
Method: as §1, §2

[28] = target: PLK1 (Homo sapiens, UniProt P53350)
Method: as §1, §2

[29] = target: MAP4K5 (Homo sapiens, UniProt Q9Y4K4)
Method: as §1, §2

[30] = target: SGK1 (Homo sapiens, UniProt O00141)
Method: as §1, §2

[31] = target: EPH-B4 (Homo sapiens, UniProt P54760)
Method: as §1, §2

[32] = target: Aurora B (Homo sapiens, UniProt Q96GD4)
Method: as §1, §2

Chain of BRSK1 (Q8TDC3 whole entry, species assumed): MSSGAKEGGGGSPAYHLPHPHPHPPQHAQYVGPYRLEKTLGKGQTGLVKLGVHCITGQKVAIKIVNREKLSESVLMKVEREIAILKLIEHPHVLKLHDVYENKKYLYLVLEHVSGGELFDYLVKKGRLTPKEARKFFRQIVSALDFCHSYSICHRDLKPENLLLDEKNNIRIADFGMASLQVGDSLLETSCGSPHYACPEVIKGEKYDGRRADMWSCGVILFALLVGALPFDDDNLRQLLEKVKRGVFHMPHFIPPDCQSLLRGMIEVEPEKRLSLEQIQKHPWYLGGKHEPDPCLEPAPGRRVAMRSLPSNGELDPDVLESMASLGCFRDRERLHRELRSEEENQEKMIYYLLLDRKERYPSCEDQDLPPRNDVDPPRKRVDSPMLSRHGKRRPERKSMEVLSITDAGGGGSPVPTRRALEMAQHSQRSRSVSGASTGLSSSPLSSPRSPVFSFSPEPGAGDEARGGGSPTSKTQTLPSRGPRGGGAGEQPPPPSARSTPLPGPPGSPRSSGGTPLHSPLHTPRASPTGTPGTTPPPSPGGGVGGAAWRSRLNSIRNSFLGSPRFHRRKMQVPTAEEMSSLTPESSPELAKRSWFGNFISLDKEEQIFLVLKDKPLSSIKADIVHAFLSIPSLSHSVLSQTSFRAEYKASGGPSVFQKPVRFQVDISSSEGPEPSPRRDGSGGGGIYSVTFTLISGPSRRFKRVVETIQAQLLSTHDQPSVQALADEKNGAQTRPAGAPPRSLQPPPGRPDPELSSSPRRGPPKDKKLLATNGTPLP
Chain of NEK2a (P51955 whole entry, species assumed): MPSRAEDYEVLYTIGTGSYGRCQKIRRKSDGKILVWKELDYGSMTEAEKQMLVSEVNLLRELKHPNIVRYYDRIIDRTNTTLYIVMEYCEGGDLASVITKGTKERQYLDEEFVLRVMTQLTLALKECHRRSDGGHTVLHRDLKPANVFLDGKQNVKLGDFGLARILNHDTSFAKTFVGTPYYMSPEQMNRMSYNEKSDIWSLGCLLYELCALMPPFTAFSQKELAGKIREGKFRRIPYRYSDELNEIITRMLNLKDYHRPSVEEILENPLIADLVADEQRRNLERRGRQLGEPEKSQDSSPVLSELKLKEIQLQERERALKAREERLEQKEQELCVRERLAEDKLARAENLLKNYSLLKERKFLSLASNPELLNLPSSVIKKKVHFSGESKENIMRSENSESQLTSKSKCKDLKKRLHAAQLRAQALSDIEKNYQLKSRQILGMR
Chain of MARK1 (Q9P0L2 whole entry, species assumed): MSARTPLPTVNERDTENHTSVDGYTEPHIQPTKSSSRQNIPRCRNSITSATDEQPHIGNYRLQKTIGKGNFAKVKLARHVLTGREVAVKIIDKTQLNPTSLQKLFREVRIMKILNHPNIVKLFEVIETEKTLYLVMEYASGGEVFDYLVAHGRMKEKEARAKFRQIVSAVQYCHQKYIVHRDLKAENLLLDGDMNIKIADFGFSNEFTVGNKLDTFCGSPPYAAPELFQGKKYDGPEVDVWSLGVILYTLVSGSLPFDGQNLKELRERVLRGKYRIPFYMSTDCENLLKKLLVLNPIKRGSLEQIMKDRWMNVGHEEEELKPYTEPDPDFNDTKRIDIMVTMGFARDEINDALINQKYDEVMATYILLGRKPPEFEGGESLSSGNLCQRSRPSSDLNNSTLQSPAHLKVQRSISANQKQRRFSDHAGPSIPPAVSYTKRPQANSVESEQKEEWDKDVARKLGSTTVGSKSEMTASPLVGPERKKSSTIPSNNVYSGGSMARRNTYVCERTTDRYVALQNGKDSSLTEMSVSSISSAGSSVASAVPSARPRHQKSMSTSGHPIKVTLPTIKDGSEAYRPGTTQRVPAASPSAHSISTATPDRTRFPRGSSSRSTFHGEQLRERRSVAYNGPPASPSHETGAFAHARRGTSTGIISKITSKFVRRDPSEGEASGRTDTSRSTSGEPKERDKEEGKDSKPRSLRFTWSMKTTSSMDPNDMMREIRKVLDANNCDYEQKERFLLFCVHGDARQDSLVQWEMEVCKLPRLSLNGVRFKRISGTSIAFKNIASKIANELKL
Chain of MST4 (Q9P289 whole entry, species assumed): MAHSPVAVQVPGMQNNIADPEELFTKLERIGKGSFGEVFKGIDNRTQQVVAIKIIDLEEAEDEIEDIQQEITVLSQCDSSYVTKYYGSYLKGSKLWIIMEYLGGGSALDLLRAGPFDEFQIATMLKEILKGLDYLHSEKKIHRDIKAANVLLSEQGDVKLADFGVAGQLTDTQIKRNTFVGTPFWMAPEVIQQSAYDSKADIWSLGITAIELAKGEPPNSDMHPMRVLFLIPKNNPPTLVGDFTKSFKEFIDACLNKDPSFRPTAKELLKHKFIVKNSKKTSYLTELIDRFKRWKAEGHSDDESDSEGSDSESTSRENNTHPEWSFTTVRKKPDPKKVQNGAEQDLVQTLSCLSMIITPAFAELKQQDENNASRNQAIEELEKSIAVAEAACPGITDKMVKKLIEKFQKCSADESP
Chain of ERK5 (Q13164 whole entry, species assumed): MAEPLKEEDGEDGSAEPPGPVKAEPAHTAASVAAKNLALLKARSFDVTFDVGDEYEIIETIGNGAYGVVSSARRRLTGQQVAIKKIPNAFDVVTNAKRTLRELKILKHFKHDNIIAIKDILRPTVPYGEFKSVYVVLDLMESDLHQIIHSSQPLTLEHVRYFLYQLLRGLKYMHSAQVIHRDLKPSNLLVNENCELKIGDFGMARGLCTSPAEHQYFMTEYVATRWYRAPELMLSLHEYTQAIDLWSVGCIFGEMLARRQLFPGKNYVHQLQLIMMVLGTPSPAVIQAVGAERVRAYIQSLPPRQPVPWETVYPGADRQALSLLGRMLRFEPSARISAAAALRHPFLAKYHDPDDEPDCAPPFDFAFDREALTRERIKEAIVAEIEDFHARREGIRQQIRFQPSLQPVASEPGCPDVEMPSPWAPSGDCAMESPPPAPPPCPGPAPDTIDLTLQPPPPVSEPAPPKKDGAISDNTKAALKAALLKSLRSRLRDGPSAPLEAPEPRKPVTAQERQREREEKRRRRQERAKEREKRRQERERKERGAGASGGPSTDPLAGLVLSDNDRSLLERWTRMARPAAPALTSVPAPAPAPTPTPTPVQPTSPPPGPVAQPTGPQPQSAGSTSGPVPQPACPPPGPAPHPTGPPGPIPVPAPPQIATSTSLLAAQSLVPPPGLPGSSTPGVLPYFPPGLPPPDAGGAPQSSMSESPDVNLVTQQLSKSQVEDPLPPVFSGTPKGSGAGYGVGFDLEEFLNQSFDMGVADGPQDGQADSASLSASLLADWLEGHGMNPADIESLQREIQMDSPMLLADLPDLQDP
Chain of IRAK1 (P51617 whole entry, species assumed): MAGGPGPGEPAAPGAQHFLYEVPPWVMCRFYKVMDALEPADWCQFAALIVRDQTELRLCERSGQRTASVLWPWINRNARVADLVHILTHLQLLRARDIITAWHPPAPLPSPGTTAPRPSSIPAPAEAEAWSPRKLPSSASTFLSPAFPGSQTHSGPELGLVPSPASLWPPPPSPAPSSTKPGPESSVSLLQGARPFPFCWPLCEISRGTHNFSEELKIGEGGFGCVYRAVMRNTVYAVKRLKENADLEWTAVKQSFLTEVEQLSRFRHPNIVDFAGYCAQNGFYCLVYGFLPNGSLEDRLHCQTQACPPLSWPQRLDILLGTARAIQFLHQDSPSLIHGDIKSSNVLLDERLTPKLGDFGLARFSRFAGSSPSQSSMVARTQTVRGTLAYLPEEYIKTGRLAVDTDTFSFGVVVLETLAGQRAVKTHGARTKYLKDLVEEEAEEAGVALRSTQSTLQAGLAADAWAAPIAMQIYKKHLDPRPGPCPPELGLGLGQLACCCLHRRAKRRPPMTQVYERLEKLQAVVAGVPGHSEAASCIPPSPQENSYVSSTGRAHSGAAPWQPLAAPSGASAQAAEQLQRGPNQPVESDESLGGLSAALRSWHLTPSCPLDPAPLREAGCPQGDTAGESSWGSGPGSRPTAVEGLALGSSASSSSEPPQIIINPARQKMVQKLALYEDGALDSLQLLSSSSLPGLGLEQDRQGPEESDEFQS
Chain of TrkA (P04629 33-796, species assumed): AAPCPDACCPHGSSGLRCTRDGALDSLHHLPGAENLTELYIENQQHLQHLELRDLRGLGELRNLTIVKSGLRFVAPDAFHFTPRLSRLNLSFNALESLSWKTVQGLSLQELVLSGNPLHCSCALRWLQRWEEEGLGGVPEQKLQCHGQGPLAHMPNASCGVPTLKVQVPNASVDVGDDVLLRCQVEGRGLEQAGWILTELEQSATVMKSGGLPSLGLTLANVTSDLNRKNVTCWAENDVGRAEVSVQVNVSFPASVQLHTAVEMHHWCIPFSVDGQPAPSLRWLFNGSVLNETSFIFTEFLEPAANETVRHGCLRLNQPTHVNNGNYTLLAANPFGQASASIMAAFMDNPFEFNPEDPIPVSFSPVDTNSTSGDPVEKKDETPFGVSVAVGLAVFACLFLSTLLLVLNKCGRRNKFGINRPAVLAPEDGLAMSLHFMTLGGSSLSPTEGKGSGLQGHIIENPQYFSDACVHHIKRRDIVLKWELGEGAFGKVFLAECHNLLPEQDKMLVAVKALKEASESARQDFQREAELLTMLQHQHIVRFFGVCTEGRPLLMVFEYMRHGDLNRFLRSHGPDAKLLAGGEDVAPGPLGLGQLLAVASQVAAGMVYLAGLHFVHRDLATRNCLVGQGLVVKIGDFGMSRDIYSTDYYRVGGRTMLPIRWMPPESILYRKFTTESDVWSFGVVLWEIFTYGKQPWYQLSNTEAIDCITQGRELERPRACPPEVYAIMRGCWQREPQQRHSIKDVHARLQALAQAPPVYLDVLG

`Cc1cc(C(C#N)c2ccc(Cl)cc2)c(Cl)cc1NC(=O)c1cc(Cl)ccc1O` (stereo not shown) [ZT-1a, 5-chloro-N-(5-chloro-4-((4-chlorophenyl)(cyano)methyl)-2-methylphenyl)-2-hydroxy-benzamide] was tested, and the remaining activity at 1 µM ([1]; 1 μM) was 104 ± 16%, the remaining activity at 10 µM ([1]; 10 μM) was 91 ± 5% and the remaining activity at 1 µM ([2]; 1 μM) was 109 ± 3%. It also gave a remaining activity at 10 µM ([2]; 10 μM) of 77 ± 10%, a remaining activity at 1 µM ([3]; 1 μM) of 77 ± 2% and a remaining activity at 10 µM ([3]; 10 μM) of 81 ± 8%. For the same compound, the remaining activity at 1 µM ([4]; 1 μM) was 93 ± 12%, the remaining activity at 10 µM ([4]; 10 μM) was 93 ± 1% and the remaining activity at 1 µM ([5]; 1 μM) was 85 ± 12%. The remaining activity at 10 µM ([5]; 10 μM) was 91 ± 6%, the remaining activity at 1 µM ([6]; 1 μM) was 112 ± 4% and the remaining activity at 10 µM ([6]; 10 μM) was 97 ± 3%. For the same compound, the remaining activity at 1 µM ([7]; 1 μM) was 120 ± 9%, the remaining activity at 10 µM ([7]; 10 μM) was 114 ± 5% and the remaining activity at 1 µM ([8]; 1 μM) was 63 ± 10%. The remaining activity at 10 µM ([8]; 10 μM) was 63%, the remaining activity at 1 µM ([9]; 1 μM) was 101 ± 3% and the remaining activity at 10 µM ([9]; 10 μM) was 100 ± 11%. For the same compound, the remaining activity at 1 µM ([10]; 1 μM) was 87 ± 13%, the remaining activity at 10 µM ([10]; 10 μM) was 59 ± 5% and the remaining activity at 1 µM ([11]; 1 μM) was 128 ± 2%. For the same compound, the remaining activity at 10 µM ([11]; 10 μM) was 95 ± 7%, the remaining activity at 1 µM ([12]; 1 μM) was 94 ± 4% and the remaining activity at 10 µM ([12]; 10 μM) was 81 ± 21%. The remaining activity at 1 µM ([13]; 1 μM) was 105 ± 16%, the remaining activity at 10 µM ([13]; 10 μM) was 76 ± 8% and the remaining activity at 1 µM ([14]; 1 μM) was 63 ± 9%. For the same compound, the remaining activity at 10 µM ([14]; 10 μM) was 77 ± 5%, the remaining activity at 1 µM ([15]; 1 μM) was 88 ± 6% and the remaining activity at 10 µM ([15]; 10 μM) was 84 ± 6%. For the same compound, the remaining activity at 1 µM ([16]; 1 μM) was 104 ± 1%, the remaining activity at 10 µM ([16]; 10 μM) was 91 ± 4% and the remaining activity at 1 µM ([17]; 1 μM) was 105 ± 5%. The remaining activity at 10 µM ([17]; 10 μM) was 95 ± 4%, the remaining activity at 1 µM ([18]; 1 μM) was 68 ± 8% and the remaining activity at 10 µM ([18]; 10 μM) was 59 ± 9%. For the same compound, the remaining activity at 1 µM ([19]; 1 μM) was 87 ± 10%, the remaining activity at 10 µM ([19]; 10 μM) was 89 ± 13% and the remaining activity at 1 µM ([20]; 1 μM) was 104 ± 9%. The remaining activity at 10 µM ([20]; 10 μM) was 88%, the remaining activity at 1 µM ([21]; 1 μM) was 108 ± 14% and the remaining activity at 10 µM ([21]; 10 μM) was 88 ± 22%. It also gave a remaining activity at 1 µM ([22]; 1 μM) of 105 ± 2%, a remaining activity at 10 µM ([22]; 10 μM) of 86 ± 13% and a remaining activity at 1 µM ([23]; 1 μM) of 97 ± 3%. The remaining activity at 10 µM ([23]; 10 μM) was 107 ± 2%, the remaining activity at 1 µM ([24]; 1 μM) was 128 ± 5% and the remaining activity at 10 µM ([24]; 10 μM) was 120 ± 3%. The remaining activity at 1 µM ([25]; 1 μM) was 108 ± 9%, the remaining activity at 10 µM ([25]; 10 μM) was 91 ± 7% and the remaining activity at 1 µM ([26]; 1 μM) was 104 ± 11%. For the same compound, the remaining activity at 10 µM ([26]; 10 μM) was 63 ± 3%, the remaining activity at 1 µM ([27]; 1 μM) was 39 ± 4% and the remaining activity at 10 µM ([27]; 10 μM) was 38 ± 12%. The remaining activity at 1 µM ([28]; 1 μM) was 72 ± 1%, the remaining activity at 10 µM ([28]; 10 μM) was 93 ± 21% and the remaining activity at 1 µM ([29]; 1 μM) was 95 ± 28%. For the same compound, the remaining activity at 10 µM ([29]; 10 μM) was 76 ± 9%, the remaining activity at 1 µM ([30]; 1 μM) was 73 ± 14% and the remaining activity at 10 µM ([30]; 10 μM) was 58 ± 5%. It also gave a remaining activity at 1 µM ([31]; 1 μM) of 100 ± 8%, a remaining activity at 10 µM ([31]; 10 μM) of 151 ± 33% and a remaining activity at 1 µM ([32]; 1 μM) of 119 ± 6%. For the same compound, the remaining activity at 10 µM ([32]; 10 μM) was 92 ± 15%.
